Data taken from patent publication US6914045B2, “Glycopeptide antibiotics” (Wyeth Holdings Corporation, priority 2001, dated 2005).
Values after ≈ are worked out from the molar mass of the structure shown. Where two headings read alike, the source gives them in different places.

Assays:
Assay in all cases: in vitro antibacterial evaluation, MIC by broth dilution
Assay type in all cases: cell-based
Enterococcus sp. = system: Enterococcus sp.
Summary of the method: (§1)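 Inoculum 5×10^5 CFU/mL; concentrations 64 to 0.06 μg/mL; MIC defined as lowest inhibitory level. Conducted by broth dilution under NCCLS guidelines.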

Staphylococcus sp. = system: Staphylococcus sp.
Summary of the method: as §1

Streptococcus sp. = system: Streptococcus sp.
Summary of the method: as §1

Escherichia coli = system: Escherichia coli
[1] = broth dilution, 18 hours at 35° C.

SMILES: CC(c1ccccc1)C1NC(=O)CNC(=O)C(CO)NC(=O)C(C(O)C2CNC(=N)N2C2OC(CO)C(O)C(O)C2O)NC(=O)C(C(O)C2CNC(=N)N2)NC(=O)C(Cc2ccc(OC3OC(CO)C(OC4OC5COC6(CCCCC6(C)C)OC5C(O)C4O)C(O)C3O)cc2)NC1=O (centres unmarked) [Example 205]
- MIC Enterococcus avium (GC 4558) (Enterococcus sp.; [1]): 4 µg/mL (≈ 2.85 µM)
- MIC Enterococcus faecalis (ATCC 29212) (Enterococcus sp.; [1]): 2 µg/mL (≈ 1.43 µM)
- MIC Enterococcus faecalis (GC 2242) (Enterococcus sp.; [1]): 4 µg/mL (≈ 2.85 µM)
- MIC Enterococcus faecalis (GC 2691) (Enterococcus sp.; [1]): 4 µg/mL (≈ 2.85 µM)
- MIC Enterococcus faecalis (GC 3059) (Enterococcus sp.; [1]): 2 µg/mL (≈ 1.43 µM)
- MIC Enterococcus faecalis (GC 4552) (Enterococcus sp.; [1]): 4 µg/mL (≈ 2.85 µM)
- MIC Enterococcus faecalis (GC 4553) (Enterococcus sp.; [1]): 2 µg/mL (≈ 1.43 µM)
- MIC Enterococcus faecalis (GC 4554) (Enterococcus sp.; [1]): 4 µg/mL (≈ 2.85 µM)
- MIC Enterococcus faecalis (GC 6189) (Enterococcus sp.; [1]): 2 µg/mL (≈ 1.43 µM)
- MIC Enterococcus faecium (GC 2243) (Enterococcus sp.; [1]): 2 µg/mL (≈ 1.43 µM)
- MIC Enterococcus faecium (GC 4556) (Enterococcus sp.; [1]): 2 µg/mL (≈ 1.43 µM)
- MIC Enterococcus faecium (GC 4557) (Enterococcus sp.; [1]): 4 µg/mL (≈ 2.85 µM)
- MIC Enterococcus faecalis (ATCC 29212) (Enterococcus sp.; broth dilution, inoculum 5×10^5 CFU/mL, 18 hours at 35° C., strain ATCC 29212): 2 µg/mL (≈ 1.43 µM)
- MIC Enterococcus faecalis (GC 2242) (Enterococcus sp.; broth dilution, inoculum 5×10^5 CFU/mL, 18 hours at 35° C., strain GC 2242): 4 µg/mL (≈ 2.85 µM)
- MIC Enterococcus faecium (GC 2243) (Enterococcus sp.; broth dilution, inoculum 5×10^5 CFU/mL, 18 hours at 35° C., strain GC 2243): 2 µg/mL (≈ 1.43 µM)
- MIC Enterococcus faecalis (GC 2691) (Enterococcus sp.; broth dilution, inoculum 5×10^5 CFU/mL, 18 hours at 35° C., strain GC 2691): 4 µg/mL (≈ 2.85 µM)
- MIC Enterococcus faecalis (GC 3059) (Enterococcus sp.; broth dilution, inoculum 5×10^5 CFU/mL, 18 hours at 35° C., strain GC 3059): 2 µg/mL (≈ 1.43 µM)
- MIC Enterococcus faecalis (GC 4552) (Enterococcus sp.; broth dilution, inoculum 5×10^5 CFU/mL, 18 hours at 35° C., strain GC 4552): 4 µg/mL (≈ 2.85 µM)
- MIC Enterococcus faecalis (GC 4553) (Enterococcus sp.; broth dilution, inoculum 5×10^5 CFU/mL, 18 hours at 35° C., strain GC 4553): 2 µg/mL (≈ 1.43 µM)
- MIC Enterococcus faecalis (GC 4554) (Enterococcus sp.; broth dilution, inoculum 5×10^5 CFU/mL, 18 hours at 35° C., strain GC 4554): 4 µg/mL (≈ 2.85 µM)
- MIC Enterococcus faecium (GC 4556) (Enterococcus sp.; broth dilution, inoculum 5×10^5 CFU/mL, 18 hours at 35° C., strain GC 4556): 2 µg/mL (≈ 1.43 µM)
- MIC Enterococcus faecium (GC 4557) (Enterococcus sp.; broth dilution, inoculum 5×10^5 CFU/mL, 18 hours at 35° C., strain GC 4557): 4 µg/mL (≈ 2.85 µM)
- MIC Enterococcus avium (GC 4558) (Enterococcus sp.; broth dilution, inoculum 5×10^5 CFU/mL, 18 hours at 35° C., strain GC 4558): 4 µg/mL (≈ 2.85 µM)
- MIC Enterococcus faecalis (GC 6189) (Enterococcus sp.; broth dilution, inoculum 5×10^5 CFU/mL, 18 hours at 35° C., strain GC 6189): 2 µg/mL (≈ 1.43 µM)
- MIC Staphylococcus aureus (GC 1131) (Staphylococcus sp.; broth dilution, 18 hours at 35° C., inoculum 5×10^5 CFU/mL, strain GC 1131): 2 µg/mL (≈ 1.43 µM)
- MIC Staphylococcus aureus (ATCC 29213) (Staphylococcus sp.; strain ATCC 29213, broth dilution, 18 hours at 35° C.): 2 µg/mL (≈ 1.43 µM)
- MIC Staphylococcus aureus (GC 1131) (Staphylococcus sp.; strain GC 1131, broth dilution, 18 hours at 35° C.): 2 µg/mL (≈ 1.43 µM)
- MIC Staphylococcus aureus (GC 3051) (Staphylococcus sp.; strain GC 3051, broth dilution, 18 hours at 35° C.): 2 µg/mL (≈ 1.43 µM)
- MIC Staphylococcus aureus (GC 3053) (Staphylococcus sp.; strain GC 3053, broth dilution, 18 hours at 35° C.): 2 µg/mL (≈ 1.43 µM)
- MIC Staphylococcus aureus (GC 4541) (Staphylococcus sp.; strain GC 4541, broth dilution, 18 hours at 35° C.): 2 µg/mL (≈ 1.43 µM)
- MIC Staphylococcus aureus (GC 4542) (Staphylococcus sp.; strain GC 4542, broth dilution, 18 hours at 35° C.): 2 µg/mL (≈ 1.43 µM)
- MIC Staphylococcus aureus-SMITH (GC 4543) (Staphylococcus sp.; strain GC 4543, broth dilution, 18 hours at 35° C.): 2 µg/mL (≈ 1.43 µM)
- MIC Staphylococcus aureus (GC 4544) (Staphylococcus sp.; strain GC 4544, broth dilution, 18 hours at 35° C.): 2 µg/mL (≈ 1.43 µM)
- MIC Staphylococcus aureus (GC 4545) (Staphylococcus sp.; strain GC 4545, broth dilution, 18 hours at 35° C.): 2 µg/mL (≈ 1.43 µM)
- MIC Staphylococcus haemolyticus (GC 4546) (Staphylococcus sp.; strain GC 4546, broth dilution, 18 hours at 35° C.): 2 µg/mL (≈ 1.43 µM)
- MIC Coagulase Negative Staphylococcus (GC 4547) (Staphylococcus sp.; strain GC 4547, broth dilution, 18 hours at 35° C.): 2 µg/mL (≈ 1.43 µM)
- MIC Coagulase Negative Staphylococcus (GC 4548) (Staphylococcus sp.; strain GC 4548, broth dilution, 18 hours at 35° C.): 1 µg/mL (≈ 0.713 µM)
- MIC Coagulase Negative Staphylococcus (GC 4549) (Staphylococcus sp.; strain GC 4549, broth dilution, 18 hours at 35° C.): 1 µg/mL (≈ 0.713 µM)
- MIC Coagulase Negative Staphylococcus (GC 4551) (Staphylococcus sp.; strain GC 4551, broth dilution, 18 hours at 35° C.): 2 µg/mL (≈ 1.43 µM)
- MIC Streptococcus agalactiae (GC 4564) (Streptococcus sp.; [1]): <0.12 µg/mL
- MIC Streptococcus pneumoniae (ATCC 6301) (Streptococcus sp.; [1]): <0.12 µg/mL
- MIC Streptococcus pneumoniae (GC 1894) (Streptococcus sp.; [1]): <0.12 µg/mL
- MIC Streptococcus pneumoniae (GC 4565) (Streptococcus sp.; [1]): <0.12 µg/mL
- MIC Streptococcus pyogenes (GC 4563) (Streptococcus sp.; [1]): <0.12 µg/mL
- MIC Streptococcus pneumoniae (ATCC 6301) (Streptococcus sp.; broth dilution, inoculum 5×10^5 CFU/mL, 18 hours at 35° C., strain ATCC 6301): <0.12 µg/mL
- MIC Streptococcus pneumoniae (GC 1894) (Streptococcus sp.; broth dilution, inoculum 5×10^5 CFU/mL, 18 hours at 35° C., strain GC 1894): <0.12 µg/mL
- MIC Streptococcus pyogenes (GC 4563) (Streptococcus sp.; broth dilution, inoculum 5×10^5 CFU/mL, 18 hours at 35° C., strain GC 4563): <0.12 µg/mL
- MIC Streptococcus agalactiae (GC 4564) (Streptococcus sp.; broth dilution, inoculum 5×10^5 CFU/mL, 18 hours at 35° C., strain GC 4564): <0.12 µg/mL
- MIC Streptococcus pneumoniae (GC 4565) (Streptococcus sp.; broth dilution, inoculum 5×10^5 CFU/mL, 18 hours at 35° C., strain GC 4565): <0.12 µg/mL
- MIC Escherichia coli (ATCC 25922) (Escherichia coli; 18 hours at 35° C.): 64 µg/mL (≈ 45.6 µM)
- MIC Escherichia coli (GC 4559) (Escherichia coli; 18 hours at 35° C.): 128 µg/mL (≈ 91.2 µM)
- MIC Escherichia coli (GC 4560) (Escherichia coli; 18 hours at 35° C.): 1 µg/mL (≈ 0.713 µM)

SMILES: CC(c1ccccc1)C1NC(=O)CNC(=O)C(CO)NC(=O)C(C(O)C2CNC(=N)N2C2OC(CO)C(O)C(O)C2O)NC(=O)C(C(O)C2CNC(=N)N2)NC(=O)C(Cc2ccc(OC3OC(CO)C(OC4OC(CO)C(O)C(O)C4O)C(O)C3O)c(I)c2)NC1=O (stereo not drawn) [Example 6, Cyclo[glycyl-β-methylphenylalanyl-O-(4-O-hexolpyranosylhexolpyranosyl)-3-iodo-tyrosyl-3-(2-iminoimidazolidin-4-yl)seryl-3-(3-hexolpyranosyl-2-iminoimidazolidin-4-yl)serylseryl]]
- MIC Enterococcus avium (GC 4558) (Enterococcus sp.): >128 µg/mL
- MIC Enterococcus faecalis (ATCC 29212) (Enterococcus sp.): >128 µg/mL
- MIC Enterococcus faecalis (GC 2242) (Enterococcus sp.): >128 µg/mL
- MIC Enterococcus faecalis (GC 4552) (Enterococcus sp.): >128 µg/mL
- MIC Enterococcus faecalis (GC 4553) (Enterococcus sp.): >128 µg/mL
- MIC Enterococcus faecalis (GC 4554) (Enterococcus sp.): >128 µg/mL
- MIC Enterococcus faecium (GC 2243) (Enterococcus sp.): >128 µg/mL
- MIC Enterococcus faecium (GC 4556) (Enterococcus sp.): >128 µg/mL
- MIC Enterococcus faecium (GC 4557) (Enterococcus sp.): >128 µg/mL
- MIC Coagulase Negative Staphylococcus (GC 4547) (Staphylococcus sp.): >128 µg/mL
- MIC Coagulase Negative Staphylococcus (GC 4548) (Staphylococcus sp.): >128 µg/mL
- MIC Coagulase Negative Staphylococcus (GC 4549) (Staphylococcus sp.): >128 µg/mL
- MIC Coagulase Negative Staphylococcus (GC 4551) (Staphylococcus sp.): >128 µg/mL
- MIC Coagulase Negative Staphylococcus (ID-3941) (Staphylococcus sp.): >128 µg/mL
- MIC Staphylococcus aureus (ATCC 29213) (Staphylococcus sp.): >128 µg/mL
- MIC Staphylococcus aureus (GC 1131) (Staphylococcus sp.): >128 µg/mL
- MIC Staphylococcus aureus (GC 4541) (Staphylococcus sp.): >128 µg/mL
- MIC Staphylococcus aureus (GC 4542) (Staphylococcus sp.): >128 µg/mL
- MIC Staphylococcus aureus (GC 4544) (Staphylococcus sp.): >128 µg/mL
- MIC Staphylococcus aureus (GC 4545) (Staphylococcus sp.): >128 µg/mL
- MIC Staphylococcus aureus-SMITH (GC 4543) (Staphylococcus sp.): >128 µg/mL
- MIC Staphylococcus haemolyticus (GC 4546) (Staphylococcus sp.): >128 µg/mL
- MIC Streptococcus agalactiae (GC 4564) (Streptococcus sp.): >128 µg/mL
- MIC Streptococcus pneumoniae (GC 4565) (Streptococcus sp.): >128 µg/mL
- MIC Streptococcus pyogenes (ID-3187) (Streptococcus sp.): >128 µg/mL
- MIC Escherichia coli (ATCC 25922) (Escherichia coli): >128 µg/mL
- MIC Escherichia coli (GC 4559) (Escherichia coli): >128 µg/mL
- MIC Escherichia coli (GC 4560) (Escherichia coli): >128 µg/mL
